Measurements taken from PMC7044277 (Nature Communications, 2020).
Several values for one entry are separate records, joined by “and”; a condition that tells them apart may be missing. Equal values may be shown once.

Experiments:
Type in all cases: cell-based
Parameters in all cases: GPCRome screening signal at PTGIR / GPCRome screening signal at PTH1R / GPCRome screening signal at PTH2R / GPCRome screening signal at QRFP / GPCRome screening signal at RXFP2 / GPCRome screening signal at RXFP3 / GPCRome screening signal at RXFP4 / GPCRome screening signal at S1PR2 / GPCRome screening signal at S1PR3 / GPCRome screening signal at S1PR4 / GPCRome screening signal at S1PR5 / GPCRome screening signal at SCTR / GPCRome screening signal at SSTR2 / GPCRome screening signal at SSSTR / GPCRome screening signal at SSTR4 / GPCRome screening signal at SSTR5 / GPCRome screening signal at SUCNR1 / GPCRome screening signal at TA1 / GPCRome screening signal at TAAR2 / GPCRome screening signal at TAAR5 / GPCRome screening signal at TAAR6 / GPCRome screening signal at TAAR8 / GPCRome screening signal at TACR1 / GPCRome screening signal at TACR2 / GPCRome screening signal at TACR3 / GPCRome screening signal at TBXA2R / GPCRome screening signal at TSHR / GPCRome screening signal at UTS2R / GPCRome screening signal at VIPR2 / GPCRome screening signal at GPR68 no V2 Tail / GPCRome screening signal at GRM2 / GPCRome screening signal at GRM3: reference not given here
[1] = target: T1, 320 non-olfactory GPCRs (Homo sapiens, UniProt Q8TDU9); conditions: receptor RXFP4
T1 construct: expressed in transfected cells; host or cells: HTLA cells

[2] = target: T2, 320 non-olfactory GPCRs (Homo sapiens, UniProt Q969N4); conditions: receptor TAAR8
T2 construct: expressed in transfected cells; host or cells: HTLA cells

[3] = target: 320 non-olfactory GPCRs (Homo sapiens, UniProt Q99500); conditions: receptor S1PR3
[4] = target: T3, 320 non-olfactory GPCRs (Homo sapiens, UniProt Q9HBX9); conditions: receptor RXFP1
T3 construct: expressed in transfected cells; host or cells: HTLA cells

[5] = Fig_5f, single replicate values
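For GPCRome agonism screen response in this document: fold over basal response of each receptor without drug.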

T1 sequence (Q8TDU9 whole entry): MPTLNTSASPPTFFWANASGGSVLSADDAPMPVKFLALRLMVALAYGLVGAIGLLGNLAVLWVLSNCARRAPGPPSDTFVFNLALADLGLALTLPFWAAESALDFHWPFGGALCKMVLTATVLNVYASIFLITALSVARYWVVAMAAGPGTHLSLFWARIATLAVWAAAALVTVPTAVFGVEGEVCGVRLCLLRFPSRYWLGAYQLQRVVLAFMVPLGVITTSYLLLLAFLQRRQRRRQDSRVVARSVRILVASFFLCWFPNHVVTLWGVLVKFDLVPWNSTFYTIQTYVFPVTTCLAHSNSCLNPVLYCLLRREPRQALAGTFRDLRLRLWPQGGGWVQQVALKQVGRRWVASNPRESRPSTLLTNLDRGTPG
320 non-olfactory GPCRs (Homo sapiens, UniProt Q99500), sequence (Q99500 whole entry): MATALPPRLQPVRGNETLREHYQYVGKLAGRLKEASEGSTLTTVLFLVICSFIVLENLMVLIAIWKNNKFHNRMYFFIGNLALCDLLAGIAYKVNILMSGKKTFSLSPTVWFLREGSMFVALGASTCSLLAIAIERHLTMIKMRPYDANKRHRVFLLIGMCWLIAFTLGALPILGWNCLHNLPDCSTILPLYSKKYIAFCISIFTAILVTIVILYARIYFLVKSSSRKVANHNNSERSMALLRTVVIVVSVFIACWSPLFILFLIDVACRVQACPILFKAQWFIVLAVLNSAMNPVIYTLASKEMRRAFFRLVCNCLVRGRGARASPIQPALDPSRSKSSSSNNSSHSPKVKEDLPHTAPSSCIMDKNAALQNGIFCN
T2 sequence (Q969N4 whole entry): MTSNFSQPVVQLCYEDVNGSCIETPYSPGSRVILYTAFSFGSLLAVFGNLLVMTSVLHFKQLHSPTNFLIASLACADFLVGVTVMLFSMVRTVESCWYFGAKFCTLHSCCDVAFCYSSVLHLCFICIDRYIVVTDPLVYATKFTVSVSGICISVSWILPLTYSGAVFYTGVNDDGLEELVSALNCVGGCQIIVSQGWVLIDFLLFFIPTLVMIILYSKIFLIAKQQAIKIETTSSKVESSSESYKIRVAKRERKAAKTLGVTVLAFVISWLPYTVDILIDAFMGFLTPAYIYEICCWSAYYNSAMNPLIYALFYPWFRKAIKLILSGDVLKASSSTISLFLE
T3 sequence (Q9HBX9 whole entry): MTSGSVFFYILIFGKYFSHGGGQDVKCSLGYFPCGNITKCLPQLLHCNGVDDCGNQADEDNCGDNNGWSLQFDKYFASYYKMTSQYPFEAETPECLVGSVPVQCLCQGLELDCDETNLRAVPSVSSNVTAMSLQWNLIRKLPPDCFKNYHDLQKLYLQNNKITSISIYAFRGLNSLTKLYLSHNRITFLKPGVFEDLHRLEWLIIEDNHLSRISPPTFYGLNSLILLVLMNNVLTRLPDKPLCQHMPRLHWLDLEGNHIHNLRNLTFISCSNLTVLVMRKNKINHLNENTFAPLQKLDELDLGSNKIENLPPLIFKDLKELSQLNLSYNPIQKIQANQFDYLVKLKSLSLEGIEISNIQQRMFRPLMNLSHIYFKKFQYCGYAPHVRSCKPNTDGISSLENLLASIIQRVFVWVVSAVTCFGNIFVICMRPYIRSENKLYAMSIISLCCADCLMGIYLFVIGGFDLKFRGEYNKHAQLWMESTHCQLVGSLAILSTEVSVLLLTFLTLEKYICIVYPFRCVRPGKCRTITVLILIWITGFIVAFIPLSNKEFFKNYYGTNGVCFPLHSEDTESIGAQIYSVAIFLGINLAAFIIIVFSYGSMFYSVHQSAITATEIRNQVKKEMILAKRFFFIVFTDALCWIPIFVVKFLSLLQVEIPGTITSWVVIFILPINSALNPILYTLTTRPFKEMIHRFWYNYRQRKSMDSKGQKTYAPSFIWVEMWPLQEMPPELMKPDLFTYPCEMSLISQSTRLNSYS

CCOc1ccccc1CCC(C)NCC1(O)CCCCC1.Cl (racemic) [Fig_5f]
GPCRome screening signal at RXFP4 [1, 5]: 0.4319 and 1.123 and 0.5997 and 0.5278 | GPCRome screening signal at TAAR8 [2, 5]: 0.6115 and 0.4578 and 0.5144 and 0.5546 | GPCRome screening signal at S1PR3 [3, 5]: 1.578 and 1.076 and 2.206 and 1.217 | GPCRome screening signal at RXFP1 [4, 5]: 1.526 and 1.245 and 1.665 and 0.7058

CCOc1cccc2cc(C(C)NCC3(O)CCCCC3)oc12 (centres unmarked) [O4LE6]
GPCRome agonism screen response ([1]; replicate values, Fig_4g): 0.5888 and 1.446 and 0.8124 and 1.384 | GPCRome agonism screen response ([2]; replicate values, Fig_4g): 0.2595 and 0.5748 and 0.5852 and 0.7484 | GPCRome agonism screen response ([3]; replicate values, Fig_4g): 2.336 and 1.6343 and 1.172 and 1.379 | GPCRome agonism screen response ([4]; replicate values, Fig_4g): 1.294 and 0.8675 and 1.5976 and 1.234
